Test results reported in publication PMC9822072, “Synthesis and Structure–Activity Relationship of 2,6-Disubstituted Thiosemicarbazone Derivatives of Pyridine as Potential Antituberculosis Agents” (Materials, 2023).
≈ marks a conversion by molar mass, not a printed value. Where two headings read alike, the source gives them in different places.

Columns and labels:
[1] = tested on: M. tuberculosis H37Rv (standard strain); assay: Tuberculostatic activity, twofold serial microdilution with Alamar Blue; assay type: cell-based, Mycobacterium tuberculosis; details: 21 days at 37 °C; for MIC: Mycobacterium tuberculosis, H37RV, 504 h
[2] = tested on: Bacillus cereus ATCC 10876; assay: Antibacterial microdilution broth method; assay type: cell-based
Description: (§1) The antibacterial and antifungal activities of compounds 4–9 were screened by the microdilution broth method using Mueller–Hinton broth for the growth of bacteria and Mueller–Hinton broth with 2% glucose for the growth of fungi. The antimicrobial assays were carried out following a previous study. The MICs of the aforementioned derivatives were evaluated for the panel of reference microorganisms from the ATCC (American Type Culture Collection), including Gram-positive bacteria (Staphylococcus aureus ATCC 25923, Staphylococcus epidermidis ATCC 12228, Micrococcus luteus ATCC 10240, Bacillus subtilis ATCC 6633, and Bacillus cereus ATCC 10876), Gram-negative bacteria (Escherichia coli ATCC 25922, Proteus mirabilis ATCC 12453, Klebsiella pneumoniae ATCC 13883, and Pseudomonas aeruginosa ATCC 9027), and fungi (Candida albicans ATCC 102231 and Candida parapsilosis ATCC 22019) (LGC Standards, Teddington, Middlesex, UK). Vancomycin (VAN), ciprofloxacin (CIP), and fluconazole (FCZ) were used as standard drugs for comparison. Each experiment was performed in triplicate.

[3] = tested on: Bacillus subtilis ATCC 6633; assay: Antibacterial microdilution broth method; assay type: cell-based
Description: as §1

[4] = tested on: Escherichia coli ATCC 25922; assay: Antibacterial microdilution broth method; assay type: cell-based
Description: as §1

[5] = tested on: Klebsiella pneumoniae ATCC 13883; assay: Antibacterial microdilution broth method; assay type: cell-based
Description: as §1

[6] = tested on: Micrococcus luteus ATCC 10240; assay: Antibacterial microdilution broth method; assay type: cell-based
Description: as §1

[7] = tested on: Proteus mirabilis ATCC 12453; assay: Antibacterial microdilution broth method; assay type: cell-based
Description: as §1

[8] = tested on: Pseudomonas aeruginosa ATCC 9027; assay: Antibacterial microdilution broth method; assay type: cell-based
Description: as §1

[9] = tested on: Staphylococcus aureus ATCC 25923; assay: Antibacterial microdilution broth method; assay type: cell-based; details: for MIC: Staphylococcus aureus
Description: as §1

[10] = tested on: Staphylococcus epidermidis ATCC 12228; assay: Antibacterial microdilution broth method; assay type: cell-based; details: for MIC: Staphylococcus epidermidis
Description: as §1

[11] = tested on: Candida albicans ATCC 102231; assay: Antifungal microdilution broth method; assay type: cell-based; details: ATCC102231, Mueller–Hinton broth with 2% glucose, read-out: MIC C. albicans ATCC 102231
Description: as §1

[12] = tested on: Candida parapsilosis ATCC 22019; assay: Antifungal microdilution broth method; assay type: cell-based; details: Lodderomyces parapsilosis, ATCC22019; Mueller–Hinton broth with 2% glucose; read-out: MIC C. parapsilosis ATCC 22019
Description: as §1

[13] = tested on: HaCaT cells; assay: Cytotoxic activity, MTT method; assay type: cell-based; details: Homo sapiens, 72 h, 3 days of incubation
[14] = tested on: HaCaT cells; assay: Cytotoxic activity, sulforhodamine B method; details: for IC50: Homo sapiens, 72 h, read-out: IC50-HaCaT SULF; for cytotoxicity against noncancer cells (in words): MTT and sulforhodamine B methods together
[15] = tested on: Mycobacterium strains; design: method as in PMID 32061963, PMID 36013649; details: cited from earlier work
[16] = tested on: other pathogenic microorganisms; design: method as in PMID 32061963, PMID 36013649; details: cited from earlier work
[17] = tested on: Gram-positive bacteria; assay: Antibacterial microdilution broth method, summary in text; assay type: cell-based; details: read-out: MIC Gram-positive bacteria
Description: as §1

[18] = ATCC10876, Mueller–Hinton broth, read-out: MIC B. cereus ATCC 10876
[19] = ATCC6633, Mueller–Hinton broth, read-out: MIC B. subtilis ATCC 6633
[20] = ATCC25922, Mueller–Hinton broth, read-out: MIC E. coli ATCC 25922
[21] = ATCC13883, Mueller–Hinton broth, read-out: MIC K. pneumoniae ATCC 13883
[22] = ATCC10240, Mueller–Hinton broth, read-out: MIC M. luteus ATCC 10240
[23] = ATCC12453, Mueller–Hinton broth, read-out: MIC P. mirabilis ATCC 12453
[24] = ATCC9027, Mueller–Hinton broth, read-out: MIC P. aeruginosa ATCC 9027
[25] = ATCC25923, Mueller–Hinton broth, read-out: MIC S. aureus ATCC 25923
[26] = ATCC12228, Mueller–Hinton broth, read-out: MIC S. epidermidis ATCC 12228

SMILES | MIC [1] [µg/mL] | MIC [2, 18] [µg/mL] | MIC [3, 19] [µg/mL] | MIC [4, 20] [µg/mL] | MIC [5, 21] [µg/mL] | MIC [6, 22] [µg/mL] | MIC [7, 23] [µg/mL] | MIC [8, 24] [µg/mL] | MIC [9, 25] [µg/mL] | MIC [10, 26] [µg/mL] | MIC [11] [µg/mL] | MIC [12] [µg/mL] | IC50 [13] [µg/mL] | melting point [°C] | IC50 [14] [µg/mL] | cytotoxicity against noncancer cells (in words) [14] | further results
NC(=NNC(=S)N1CCOCC1)c1cccc(Oc2ccccc2)n1 [Compound 8, N’-(Morpholine-4-Carbonothioyl)-6-Phenoxypicolinohydrazonamide] | 8 (≈ 22.4 µM) | > 1000 | > 1000 | > 1000 | > 1000 | 125 (≈ 350 µM) | > 1000 | > 1000 | 250 (≈ 699 µM) | 31.3 (≈ 87.6 µM) | > 1000 | > 1000 | 0.57 (≈ 1.59 µM) | 131 to 134 | 50 (≈ 140 µM) | inhibited cell metabolic activity while maintaining cell viability | 
O=C(O)c1cn(C2CC2)c2cc(N3CCNCC3)c(F)cc2c1=O [CIP, ciprofloxacin, reference compound] |  | 0.12 (≈ 0.362 µM) | 0.03 (≈ 0.0905 µM) |  |  | 0.98 (≈ 2.96 µM) |  |  | 0.49 (≈ 1.48 µM) | 0.49 (≈ 1.48 µM) |  |  |  |  |  |  | 
NNC(=O)c1ccncc1 [INH, isoniazid, reference compound] | 0.125 (≈ 0.911 µM) |  |  |  |  |  |  |  |  |  |  |  |  |  |  |  | 
NC(=NNC(=S)N1CCCC1)c1cccc(Oc2ccccc2)n1 [Compound 9, 6-Phenoxy-N’-(Pyrrolidine-1-Carbonothioyl)Picolinohydrazonamide] | 8 (≈ 23.4 µM) | 3.9 (≈ 11.4 µM) | 0.49 (≈ 1.44 µM) | 1000 (≈ 2930 µM) | > 1000 | 0.49 (≈ 1.44 µM) | > 1000 | 1000 (≈ 2930 µM) | 0.98 (≈ 2.87 µM) | 0.49 (≈ 1.44 µM) | 1000 (≈ 2930 µM) | 1000 (≈ 2930 µM) | 0.06 (≈ 0.176 µM) | 170 to 173 | 1.31 (≈ 3.84 µM) | showed the same while losing cell viability | 
NC(=NNC(=S)N1CCOCC1)c1cccc(N2CCCC2)n1 [Compound 4, N’-(Morpholine-4-Carbonothioyl)-6-(Pyrrolidin-1-Yl)Picolinohydrazonamide] | 16 (≈ 47.8 µM) | 7.8 (≈ 23.3 µM) | 7.8 (≈ 23.3 µM) | > 1000 | > 1000 | 7.8 (≈ 23.3 µM) | > 1000 | > 1000 | 3.9 (≈ 11.7 µM) | 1.95 (≈ 5.83 µM) | 250 (≈ 747 µM) | > 1000 | > 50 | 180 to 182 | > 50 | no cytotoxicity | 
N/C(=N\NC(=S)N1CCOCC1)c1cc(-c2ccccc2)ccn1 [MKG-1b] |  |  |  |  |  |  |  |  |  |  |  |  |  |  |  |  | MIC toward Mycobacterium strains [15]: 3.1 µg/mL (≈ 9.08 µM); MIC other pathogenic microorganisms [16]: 0.98 to 500 µg/mL
OC(Cn1cncn1)(Cn1cncn1)c1ccc(F)cc1F [FCZ, fluconazole, reference compound] |  |  |  |  |  |  |  |  |  |  | 0.98 (≈ 3.2 µM) | 1.95 (≈ 6.37 µM) |  |  |  |  | 
NC(=NNC(=S)N1CCCC1)c1cccc(N2CCCC2)n1 [Compound 5, 6-(Pyrrolidin-1-Yl)-N’-(Pyrrolidine-1-Carbonothioyl)Picolinohydrazonamide] | 2 (≈ 6.28 µM) | 7.8 (≈ 24.5 µM) | 0.49 (≈ 1.54 µM) | > 1000 | > 1000 | 0.49 (≈ 1.54 µM) | > 1000 | > 1000 | 0.49 (≈ 1.54 µM) | 0.49 (≈ 1.54 µM) | 250 (≈ 785 µM) | 1000 (≈ 3140 µM) | > 50 | 200 to 201 | > 50 | no cytotoxicity | MIC [17]: 0.49 µg/mL (≈ 1.54 µM)
NC(=NNC(=S)N1CCCC1)c1cccc(N2CCCCC2)n1 [Compound 7, 6-(Piperidin-1-Yl)-N’-(Pyrrolidine-1-Carbonothioyl)Picolinohydrazonamide] | 2 (≈ 6.02 µM) | 1.95 (≈ 5.87 µM) | 1.95 (≈ 5.87 µM) | > 1000 | > 1000 | 1.95 (≈ 5.87 µM) | > 1000 | > 1000 | 0.49 (≈ 1.47 µM) | 0.49 (≈ 1.47 µM) | 15.6 (≈ 46.9 µM) | 7.8 (≈ 23.5 µM) | > 50 | 166 to 168 | > 50 | no cytotoxicity | MIC H37Rv [1]: 2 µg/mL (≈ 6.02 µM); MIC S. aureus ATCC 25923 ([9]; Mueller–Hinton broth): 0.49 µg/mL (≈ 1.47 µM); MIC S. epidermidis ATCC 12228 ([10]; Mueller–Hinton broth): 0.49 µg/mL (≈ 1.47 µM); MIC [17]: 0.49 µg/mL (≈ 1.47 µM)
NC(=NNC(=S)N1CCOCC1)c1cccc(N2CCCCC2)n1 [Compound 6, N’-(Morpholine-4-Carbonothioyl)-6-(Piperidin-1-Yl)Picolinohydrazonamide] | 8 (≈ 23 µM) | 7.8 (≈ 22.4 µM) | 7.8 (≈ 22.4 µM) | > 1000 | > 1000 | 0.98 (≈ 2.81 µM) | > 1000 | > 1000 | 1.95 (≈ 5.6 µM) | 0.98 (≈ 2.81 µM) | 1000 (≈ 2870 µM) | 1000 (≈ 2870 µM) | 9.49 (≈ 27.2 µM) | 177 to 178 | > 50 | inhibited cell metabolic activity while maintaining cell viability | 
CN[C@H](CC(C)C)C(=O)N[C@H]1C(=O)N[C@@H](CC(N)=O)C(=O)N[C@H]2C(=O)N[C@H]3C(=O)N[C@H](C(=O)N[C@H](C(=O)O)c4cc(O)cc(O)c4-c4cc3ccc4O)[C@H](O)c3ccc(c(Cl)c3)Oc3cc2cc(c3O[C@@H]2O[C@H](CO)[C@@H](O)[C@H](O)[C@H]2O[C@H]2C[C@](C)(N)[C@H](O)[C@H](C)O2)Oc2ccc(cc2Cl)[C@H]1O [VAN, Vancomycin, reference compound] |  |  |  |  |  |  |  |  |  |  |  |  |  |  |  |  | MIC ([2]; ATCC10876, read-out: MIC B. cereus ATCC 10876): 0.98 µg/mL (≈ 0.676 µM); MIC ([3]; ATCC6633, read-out: MIC B. subtilis ATCC 6633): 0.24 µg/mL (≈ 0.166 µM); MIC ([4]; ATCC25922, read-out: MIC E. coli ATCC 25922): 0.004 µg/mL (≈ 0.00276 µM); MIC ([5]; ATCC13883, read-out: MIC K. pneumoniae ATCC 13883): 0.06 µg/mL (≈ 0.0414 µM); MIC ([6]; ATCC10240, read-out: MIC M. luteus ATCC 10240): 0.12 µg/mL (≈ 0.0828 µM); MIC ([7]; ATCC12453, read-out: MIC P. mirabilis ATCC 12453): 0.03 µg/mL (≈ 0.0207 µM); MIC ([8]; ATCC9027, read-out: MIC P. aeruginosa ATCC 9027): 0.49 µg/mL (≈ 0.338 µM); MIC ([9]; ATCC25923, read-out: MIC S. aureus ATCC 25923): 0.98 µg/mL (≈ 0.676 µM); MIC ([10]; ATCC12228, read-out: MIC S. epidermidis ATCC 12228): 0.98 µg/mL (≈ 0.676 µM)
